Reference: patent US11220524B2, “Selective inhibitors of protein arginine methyltransferase 5 (PRMT5)” (PRELUDE THERAPEUTICS, INCORPORATED, priority 2017, dated 2022)
Converted amounts (≈) assume the structure as drawn. Where a name gives a salt, the structure may show the parent alone. Read-outs that look alike come from different tables or passages of the source.

Columns and labels:
[1] = test system: sDMA in Granta-519 tumors; assay: In vivo pharmacodynamic effect: sDMA levels in tumor samples of Granta-519 mouse xenograft model; conditions: 50 mg/kg orally QD for 14 days
Method: (§1) In Vivo Pharmacodynamic Effect of Example 36 in Granta-519 Mouse Xenograft Model.
(§2) Granta-519 cells was maintained in DMEM medium supplemented with 10% fetal bovine serum and 2 mM L-Glutamine at 37° C. in an atmosphere of 5% C02 in air. Cells in exponential growth phase were harvested and 1×10^7 cells in 0.1 mL of PBS with Matrigel (1:1) were injected subcutaneously at the right lower flank region of each mouse for tumor development. The treatments were started when the mean tumor size reaches approximately 300-400 mm^3. […] Example 36 or vehicle (0.5% methylcellulose+0.1% Tween 80) were administered orally (BID for Example 36, QD for vehicle) at a dose of 25 mg/kg for 6 days. Body weights and tumor size were measured thrice weekly after randomization. Animals were euthanized 4 hours after last dosing on day 6, and blood and tumor samples were collected for analysis.
To measure sDMA levels in tumor samples, tumors from each mouse were weighted and homogenized in RIPA buffer supplemented with protease inhibitor (cOmplete™, EDTA-free Protease Inhibitor Cocktail, Roche). […] Total protein concentrations of lysate were determined by BCA assay (ThermoFisher Scientific, Catalog #: 23225). Equal amount of total proteins from each tumor were separated on SDS-PAGE gel, and sDMA levels were determined by WB as described previously. […]

[2] = In vivo pharmacokinetic study in rat (i.v. and p.o.); conditions: rat SD male non-fasted; for clearance / half-life / Vd / bioavailability: blood; for clearance / half-life / Vd: iv; for half-life: read-out: T1/2 (printed T2) (converted); for Vd: read-out: Vss; for bioavailability: po
Method: In Vivo Pharmacokinetic Properties of Example 36.
In a rat (SD, male, non-fasted) non-crossover cassette PK study, Example 36 was dosed at 0.25 mg/kg via i.v. administration (N=3) and 2 mg/kg via oral gauge (p.o.) (N=3) with other 3 compounds.
In Vivo Pharmacokinetic Properties of Example 92.
In a rat (SD, male, non-fasted) non-crossover PK study, Example 92 was dosed at 1 mg/kg (DMA: 20% HPBCD=5:95, solution) via i.v. administration (N=2) and 1 mg/kg (0.5% Na CMC+0.5% Tween80, solution) via oral gauge (p.o.) (N=2).

[3] = molecular target: PRMT5/MEP50 complex (Homo sapiens (Human), UniProt O14744); assay: Biochemical assay: PRMT5/MEP50 methylation of histone H2A with 3H-SAM, filter plate scintillation
Summary of the method: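 5 nM PRMT5/MEP50 preincubated with compound 15–20 min at room temperature, with 5 μM histone H2A as substrate; reaction started with 1 μM 3H-SAM and run 60 min at 30 °C. TCA-stopped, filter-captured methylation counted by scintillation; IC50 from 4-parameter Hill fit.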

[4] = test system: Granta-519 mouse xenograft; assay: Tumor growth inhibition and body weight in Granta-519 mouse xenograft model; type: in vivo; conditions: 50 mg/kg orally QD for 14 days
Method: as §1, §2
Example 92 or vehicle (0.5% Na CMC+0.5% Tween80, suspension) were administered orally (QD for Example 92, QD for vehicle) at a dose of 50 mg/kg for 14 days. Body weights and tumor size were measured every 3 to 4 days after randomization. Animals were euthanized 4 hours after last dosing, and blood and tumor samples were collected for analysis.

[5] = physchem; conditions: for solubility at 4 h: 25 °C, fassif, thermodynamic from solid
Method: Compounds were first dispersed in freshly prepared FaSSIF (http://biorelevant.com/site_media/upload/documents/How_to_make_FaSSIF_FeSSIF_and_FaSSGF.pdf) buffer in 1 mg/mL respectively, and the standard samples were prepared by preparing 1 mg/mL of test compounds in DMSO. The compounds were then sufficient mixed by vortex mixer for 30 sec, and agitated at 25° C. using 300 rpm form 4 hour in thermo mixer. After incubation, the prepared samples were centrifuged at 10000 rpm for 10 min to remove the undissolved solid, the resulting supernatants were applied to HPLC. The actual concentrations of the compounds were evaluated by measuring the peak area, and the solubility (S) of compounds was calculated according to following equation: S=Csmp=Cstd*(Asmp/Astd)*(Vstd/Vsmp) Where C is the sample concentration in μg/mL, A is the peak area, and V is the injection volume.

[6] = test system: Granta-519 cells; assay: Cell proliferation assay on Granta-519 cells (CCK-8, day 10); type: cell-based; conditions: Homo sapiens, 240 h, Granta-519 cell line, read-out: Proliferation IC50
Method: Cell Proliferation Assay to Determine IC50 on Granta-519 Cells
Granta-519 cells were maintained in PRMI 1640 (Corning Cellgro, Catalog #: 10-040-CV) medium supplemented with 10% v/v FBS (GE Healthcare, Catalog #: SH30910.03). Compounds were dissolved in DMSO to make 10 mM stocks and stored at −20° C. Nine-point, 3-fold serial dilutions were made with DMSO with top concentration at 1 mM (working stocks).
On day of experiment, compound working stocks were further diluted at 1:50 with fresh medium in 96 well plate, and 10 μL of diluted drugs were added to a new 96 well plate for proliferation assay. Cells growing at exponential phase were spun down at 1500 rpm for 4 min and resuspend in fresh medium to reach a density of 0.5×10^6 cells/ml. 200 ul of cells were added to 96 well plate containing diluted drugs and incubated for 3 days. DMSO was used a vehicle control.
One day 3, 10 μL of Cell Counting Kit-8 (CCK-8, Jojindo, CK04-13) solution was added to a new 96 well plate. Cells incubated with drugs for 3 days were resuspended by pipetting up and down, and 100 μL of cells were transferred to 96 well plate containing CCK-8 reagent to measure viable cells. Plates were incubated in C02 incubator for 2 hours and OD450 values were measured with a microplate reader (iMark microplate reader, Bio-Rad).
For re-plating, compound working stocks were diluted at 1:50 with fresh medium and 10 μL of diluted drugs were added to anew 96 well plate. Cells from Day 3plate (50 ul) were added to 96 well plate containing fresh drug and additional 150 of fresh medium was added to reach 200 ul volume. Plate was returned to CO2incubator and incubated for 3more days. Viable cells measurement and re-plating were repeated on day 6, and the final viable cells measurement was taken on day 10.
Percentage of viable cells, relative to DMSO vehicle control, were calculated and plotted in Graphpad Prism ([Inhibitor] vs. normalized response-Variable slope) to determine proliferation IC50 values on day 10.

[7] = test system: Symmetric Di-Methyl Arginine (sDMA) in Granta-519 cells; assay: Western blot for symmetric di-methyl arginine (sDMA) marks in Granta cells, 3 days treatment; type: cell-based; conditions: Homo sapiens, 72 h; Granta-519 cell line, 3 days
[8] = histone H2A 5 μM, SAM 1 μM, enzyme 5 nM, read-out: PRMT5/MEP50 IC50

PRMT5/MEP50 complex, sequence (O14744 whole entry): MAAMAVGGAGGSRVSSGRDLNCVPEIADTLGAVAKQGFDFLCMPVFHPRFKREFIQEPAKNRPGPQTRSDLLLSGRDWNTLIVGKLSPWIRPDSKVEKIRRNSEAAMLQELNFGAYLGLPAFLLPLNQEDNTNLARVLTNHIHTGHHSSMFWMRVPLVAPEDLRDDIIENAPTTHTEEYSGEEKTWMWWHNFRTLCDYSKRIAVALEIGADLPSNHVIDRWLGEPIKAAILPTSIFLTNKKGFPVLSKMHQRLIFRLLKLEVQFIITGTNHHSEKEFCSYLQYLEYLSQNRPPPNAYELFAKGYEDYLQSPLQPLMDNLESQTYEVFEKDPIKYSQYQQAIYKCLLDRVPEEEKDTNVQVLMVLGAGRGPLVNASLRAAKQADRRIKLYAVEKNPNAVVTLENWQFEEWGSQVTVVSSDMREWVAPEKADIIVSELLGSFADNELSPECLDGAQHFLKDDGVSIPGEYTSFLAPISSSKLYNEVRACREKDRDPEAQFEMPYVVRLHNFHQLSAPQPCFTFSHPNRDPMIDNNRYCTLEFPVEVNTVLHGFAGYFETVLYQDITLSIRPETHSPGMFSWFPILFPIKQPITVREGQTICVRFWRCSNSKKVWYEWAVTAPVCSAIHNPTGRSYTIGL
PRMT5/MEP50 complex, sequence (Q9BQA1 whole entry partner): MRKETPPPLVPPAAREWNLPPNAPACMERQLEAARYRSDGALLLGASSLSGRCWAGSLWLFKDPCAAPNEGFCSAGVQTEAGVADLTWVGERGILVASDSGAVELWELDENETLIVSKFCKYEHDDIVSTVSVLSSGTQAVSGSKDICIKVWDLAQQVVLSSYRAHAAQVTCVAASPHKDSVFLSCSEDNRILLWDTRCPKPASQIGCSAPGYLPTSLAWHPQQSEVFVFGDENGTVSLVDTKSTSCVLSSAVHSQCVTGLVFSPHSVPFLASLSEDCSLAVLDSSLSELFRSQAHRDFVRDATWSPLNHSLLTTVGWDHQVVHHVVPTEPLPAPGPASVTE

Row | IC50 [3, 8] [nM] | IC50 [7] [nM] | Structure (SMILES) | IC50 [6] [nM] | also measured
1 | 29.6 | 57.9 | O[C@@H]1[C@H](O)[C@@H]([C@H](O)c2ccc(Cl)c(Cl)c2)O[C@H]1n1ccc2/c(=N/OCC(F)(F)F)nc[nH]c21 [Example 103, 7-((2R,3R,4S,5R)-5-((R)-(3,4-dichlorophenyl)(hydroxy)methyl)-3,4-dihydroxytetrahydrofuran-2-yl)-1,4a,7,7a-tetrahydro-4H-pyrrolo[2,3-d]pyrimidin-4-one 0-(2,2,2-trifluoroethyl) oxime] | 62 | –
2 | 17300 | 102000 | CO/N=c1/nc[nH]c2c1ccn2[C@@H]1O[C@H]([C@H](O)c2ccc(Cl)cc2)[C@@H](O)[C@H]1O [compound 36, (2R,3S,4R,5R)-2-[(R)-(4-chlorophenyl)-hydroxy-methyl]-5-(-4-methoxyimino-1H-pyrrolo[2,3-d]pyrimidin-7-yl]tetrahydrofuran-3,4-diol] | 144 | solubility at 4 h [5]: 912 µg/mL (≈ 2240 µM); clearance ([2]; cassette, i.v. 0.25 mg/kg, N=3): 12.3 mL/min/kg; half-life ([2]; cassette, i.v. 0.25 mg/kg, N=3): 1.2 h; Vd ([2]; cassette, i.v. 0.25 mg/kg, N=3): 1.1 L/kg; bioavailability ([2]; cassette, p.o. 2 mg/kg, N=3): > 120%
3 | 2.4 | 8 | O/N=c1/nc[nH]c2c1ccn2[C@@H]1O[C@H]([C@H](O)c2ccc(Cl)cc2)[C@@H](O)[C@H]1O [compound 37, 7-[(2R,3R,4S,5R)-5-[(R)-(4-chlorophenyl)-hydroxy-methyl]-3,4-dihydroxy-tetrahydrofuran-2-yl]-1H-pyrrolo[2,3-d]pyrimidin-4-one oxime hydrochloride] | 22 | –
4 | 8.6 | 45 | CO/N=c1/nc[nH]c2c1ccn2[C@@H]1O[C@H]([C@H](O)c2ccc(Cl)c(F)c2)[C@@H](O)[C@H]1O [compound 62, 7-((2R,3R,4S,5R)-5-((R)-(4-chloro-3-fluorophenyl)(hydroxy)methyl)-3,4-dihydroxytetrahydrofuran-2-yl)-1,7-dihydro-4H-pyrrolo[2,3-d]pyrimidin-4-one O-methyl oxime] | 63 | –
5 | 10.2 | 48 | CO/N=c1\nc[nH]c2c1ccn2[C@@H]1O[C@H]([C@H](O)c2ccc(F)c(F)c2)[C@@H](O)[C@H]1O [compound 70, 7-((2R,3R,4S,5R)-5-((R)-(3,4-difluorophenyl)(hydroxy)methyl)-3,4-dihydroxytetrahydrofuran-2-yl)-1,7-dihydro-4H-pyrrolo[2,3-d]pyrimidin-4-one O-methyl oxime] | 130 | –

Continued, compound first:

Row | Structure (SMILES) | IC50 [3, 8] [nM] | IC50 [7] [nM] | IC50 [6] [nM] | also measured
6 | CO/N=c1\[nH]cnc2c1ncn2[C@@H]1O[C@H]([C@](C)(O)c2ccc(Cl)c(Cl)c2)[C@@H](O)[C@H]1O [Example 92, (2S,3S,4R,5R)-2-[(1R)-1-(3,4-dichlorophenyl)-1-hydroxy-ethyl]-5-[(6Z)-6-methoxyimino-1H-purin-9-yl]tetrahydrofuran-3,4-diol] | 1970 | – | – | inhibition of sDMA in tumor samples [1]: > 90%; clearance ([2]; i.v. 1 mg/kg, N=2): 11.3 mL/min/kg; half-life ([2]; i.v. 1 mg/kg, N=2): 1.84 h; Vd ([2]; i.v. 1 mg/kg, N=2): 1.13 L/kg; bioavailability ([2]; p.o. 1 mg/kg, N=2): > 100%; dose normalized AUC0-inf ([2]; p.o. 1 mg/kg, N=2): 2184 ng·kg·h/mL/mg; body weight loss [4]: 1%; tumor growth inhibition ([4]; N=5): 74%
7 | CO/N=c1\[nH]cnc2c1ncn2[C@@H]1O[C@H]([C@](C)(O)c2ccc(Cl)c(Cl)c2)[C@@H](O)[C@H]1O [Example 92A, (2S,3S,4R,5R)-2-[(1R)-1-(3,4-dichlorophenyl)-1-hydroxy-ethyl]-5-[(6Z)-6-methoxyimino-1H-purin-9-yl]tetrahydrofuran-3,4-diol] | – | – | – | solubility at 4 h [5]: 54.7 µg/mL (≈ 120 µM)
8 | C[C@@](O)(c1ccc(Cl)c(Cl)c1)[C@H]1O[C@@H](n2cnc3/c(=N/O)nc[nH]c32)[C@H](O)[C@@H]1O [Example 108, 9-((2R,3R,4S,5S)-5-((R)-1-(3,4-dichlorophenyl)-1-hydroxyethyl)-3,4-dihydroxytetrahydrofuran-2-yl)-3,9-dihydro-6H-purin-6-one oxime] | – | 131 | 415 | IC50 [3]: 9.6 nM
9 | CC(=O)CC(c1ccccc1)c1c(O)c2ccccc2oc1=O (stereo not shown) [Warfarin, reference compound] | – | – | – | FaSSIF solubility of positive controls ([5]; positive controls in this experiment): 10 to 25 µg/mL
10 | N/N=c1/nc[nH]c2c1ccn2[C@@H]1O[C@H]([C@H](O)c2ccc(Cl)cc2)[C@@H](O)[C@H]1O [compound 20, 7-[(2R,3R,4S,5R)-5-[(R)-(4-chlorophenyl)-hydroxy-methyl]-3,4-dihydroxy-tetrahydrofuran-2-yl]-1H-pyrrolo[2,3-d]pyrimidin-4-one hydrazone] | 0.6 | 120000 | 98 | –
11 | CO/N=c1\nc[nH]c2c1ccn2[C@@H]1O[C@H]([C@](C)(O)c2ccc(Cl)c(Cl)c2)[C@@H](O)[C@H]1O [compound 61, 7-((2R,3R,4S,5S)-5-((R)-1-(3,4-dichlorophenyl)-1-hydroxyethyl)-3,4-dihydroxytetrahydrofuran-2-yl)-1,7-dihydro-4H-pyrrolo[2,3-d]pyrimidin-4-one O-methyl oxime] | 2.6 | 33 | 47 | –
12 | CO/N=c1\nc[nH]c2c1ccn2[C@@H]1O[C@H]([C@H](O)c2ccc(Cl)c(Cl)c2)[C@@H](O)[C@H]1O [compound 69, 7-((2R,3R,4S,5R)-5-((R)-(3,4-dichlorophenyl)(hydroxy)methyl)-3,4-dihydroxytetrahydrofuran-2-yl)-1,7-dihydro-4H-pyrrolo[2,3-d]pyrimidin-4-one O-methyl oxime hydrochloride] | 1.8 | 28 | 32 | –
